The values that follow are results of earlier work, collected in PMC10247525 (Colloids and surfaces. B, Biointerfaces, 2023).

Values after ≈ are worked out from the molar mass of the structure shown. Values joined by “and” are separate entries in the source; they are usually repeats but may differ in a detail not shown here. Equal values may be shown once.

For data set [1] the following is noted: cited from earlier work.
The conditions of data set [2]: cited from earlier work. This is another data set of the same source.
The conditions of data set [3]: cited from earlier work. The source holds these as a separate data set.

For the compound `O=c1[nH]cc(F)c(=O)[nH]1` [5-Fluorouracil], the solubility in water in data set [1] was 12.5 mg/ml and 96 mM. For the same compound, in data set [2], the solubility in methanol is 18 mg/mL (≈ 138 mM).
Consider `CC(=O)O[C@H]1C(=O)[C@@]2(C)[C@H]([C@H](OC(=O)c3ccccc3)[C@]3(O)C[C@H](OC(=O)[C@H](O)[C@@H](NC(=O)c4ccccc4)c4ccccc4)C(C)=C1C3(C)C)[C@]1(OC(C)=O)CO[C@@H]1C[C@@H]2O` [Paclitaxel], for which, in data set [1], the solubility in water entry is reported as “sparingly”. The solubility in methanol in data set [2] was 50 mg/mL (≈ 58.6 mM). Further, in data set [3], the “logP (octanol/water)” value was 4.
In the case of `COc1cccc2c1C(=O)c1c(O)c3c(c(O)c1C2=O)C[C@@](O)(C(=O)CO)C[C@@H]3O[C@H]1C[C@H](N)[C@H](O)[C@H](C)O1` [Doxorubicin], the solubility in water in data set [1] is 52 mg/ml and 90 mM. Also, in data set [2], the solubility in methanol result is recorded as “sparingly”.
